{"source": "paper PMC9515143", "about": "“Phosphorylation of Jhd2 by the Ras-cAMP-PKA(Tpk2) pathway regulates histone modifications and autophagy” (Nature Communications, 2022)", "key": {"[1]": {"tested_on": "H3K4me3", "experiment": "Western blot of H3K4me3 in yeast cells treated with glucose, 2-DG, FBP or pyruvate", "assay_type": "cell-based, budding yeast (Saccharomyces cerevisiae)", "settings": "WT cells, YP medium with different glucose concentrations, 0.5 hr", "excerpt": "(§1) To examine the effect of glucose on histone modifications, we grew yeast cells in 2% glucose-containing medium (YPD) until log phase. Cells were collected and then grown in the medium containing different concentrations of glucose for 0.5 hr.\nPKA is activated by cyclic AMP (cAMP), which binds to its inhibitory subunit, Bcy1 and causes its dissociation (Fig. 1g). We thus examined H3K4me3 in deletion mutants of cAMP phosphodiesterases PDE1 and PDE2, which encode enzymes to hydrolyze cAMP and inactivate PKA[39],[40]. […] To test whether the Ras-cAMP-PKA pathway mediates glucose-induced H3K4me3, we examined H3K4me3 in ras1Δ and ras2Δ mutants. […] Ras1/2 can be activated by glycolysis-derived fructose-1,6-biphosphate (FBP) via Cdc25[6] (Fig. 1g).\n(§2) To examine the effect of glucose on histone modifications, yeast cells were grown in 2% glucose-containing YPD (Yeast Extract Peptone Dextrose) medium until OD600 of 0.7–1.0. Cells were then collected, washed and resuspended in YP medium for 3 hr followed by treatment with different concentrations of glucose for 0.5 hr. For 1NM-PP1 (MCE, HY-13804) treatment, cells were grown in 2% YPD until OD600 of 0.7–1.0. Cells were then treated with 25 μM 1NM-PP1 for 0.5 hr. For FBP and pyruvate treatment, cells were pre-treated with Zymolase (Mpbio, 08320921) to increase the permeability. In brief, cells were grown in YPD medium until OD600 of 0.7–1.0, centrifuged and resuspended in 1 ml SB buffer (100 mM Sorbitol, 20 mM Tris pH 7.4). 10 μl Zymolase was then added and incubated at 30 °C for 15 min. The spheroplasts were washed and cultured in YPD medium containing different concentrations of FBP and pyruvate for 3 hr.\n(§3) Cells were grown in 5 ml YPD or selective medium until OD600 of 0.7–1.0. Cells were harvested and lysed in alkaline lysis buffer (2 M NaOH, 8% 2-mercaptoethanol). After centrifugation, the protein pellet was resuspended in 150 μl 2×SDS-sample buffer. Protein samples were separated by 8–15% SDS-PAGE and transferred to PVDF membrane. The blots were probed with primary antibodies followed by incubation with horseradish peroxidase-labelled IgG secondary antibodies. The protein bands were visualized using the ECL Chemiluminescence Detection Kit (Bio-Rad, 170–5061) and quantified with Image J software (v.1.8.0)."}, "[2]": {"tested_on": "H3K4me1 and H3K4me2", "experiment": "Western blot of H3K4me1 and H3K4me2 in yeast cells treated with glucose", "assay_type": "cell-based, budding yeast (Saccharomyces cerevisiae)", "settings": "WT cells, different glucose concentrations, 0.5 hr", "description": "as §1, §2\nCells were grown in 5 ml YPD or selective medium until OD600 of 0.7–1.0. […] The protein bands were visualized using the ECL Chemiluminescence Detection Kit (Bio-Rad, 170–5061) and quantified with Image J software (v.1.8.0)."}, "[3]": {"tested_on": "histone modifications", "experiment": "Effect of glucose on histone modifications in WT and ubp8∆ ubp10∆ mutant (Western blot)", "assay_type": "cell-based, budding yeast (Saccharomyces cerevisiae)", "settings": "for relative histone modification level (Figure S1c): 0.5 hr", "excerpt": "To identify the signaling pathway that mediates glucose-induced H3K4me3, we first examined the effect of glucose on histone modifications that regulate Set1-catalyzed H3K4me3, including H2BK123 monoubiquitination (H2Bub) and H3R2 asymmetric dimethylation (H3R2me2a)[30]–[32]. […] We then determine whether glucose increases H3K4me3 by inducing H2Bub. As there is no H3K4me3 in the deletion mutants of RAD6 and BRE1, which catalyze H2Bub[30],[31], it is impossible to determine the effect of glucose on H3K4me3 in rad6Δ and bre1Δ mutants. We thus examined the effect of glucose on H3K4me3 in the deletion mutant of UBP8 and UBP10, which encode H2B ubiquitin proteases[33],[34]. […] We also examined the effect of glucose on the activity of Set1-containing complex (COMPASS).\nas §2, §3\nSupplementary Fi g . 1 Glu cose induces H3K4me 3 via the Ras-cAMP-PKA(T p k 2) pathway. […]\nCells were th en tr eat ed with YP medium supplement ed with differen t concentrations of glucos e for 0.5 hr. C ells were h ar vested an d the ex tract ed histones w er e anal yz ed by Western blots with indicat ed ant ibodies. To d et ect H2B monoubiquitination, H2B-F LAG strain w as used and d et ect ed with anti -F LAG ant ibody. Th e upper bands ar e monoubiquitinat ed H2B-F LAG. c E ff e c t of gl ucose on histone modifications in WT and ubp8∆ ubp10∆ mutant. WT and ubp8∆ ubp10∆ mut ant w er e gro wn in YPD medium unti l OD600 of […]\nFor Supplem ent ar y Fi g. 1b, e-g, i-k, d at a r ep res ent means ± SEM; n=3 i ndependent ex perim ents. For Supplem entar y Fi g. 1c, d ata represent means ± SEM; n=4 independent ex periments. Tw o -sided t-tests were used for statistical analysis."}, "[4]": {"tested_on": "H3K4me3", "experiment": "Western blot of H3K4 methylation in mutants", "assay_type": "cell-based, budding yeast (Saccharomyces cerevisiae)", "description": "as §3"}, "[5]": {"tested_on": "H3K14ac", "experiment": "Western blot of H3K14ac (glucose, mutants)", "assay_type": "cell-based, budding yeast (Saccharomyces cerevisiae)", "description": "as §2\nCells were grown in 5 ml YPD or selective medium until OD600 of 0.7–1.0. Cells were harvested and lysed in alkaline lysis buffer (2 M NaOH, 8% 2-mercaptoethanol). After centrifugation, the protein pellet was resuspended in 150 μl 2×SDS-sample buffer. Protein samples were separated by 8–15% SDS-PAGE and transferred to PVDF membrane. […] The protein bands were visualized using the ECL Chemiluminescence Detection Kit (Bio-Rad, 170–5061) and quantified with Image J software (v.1.8.0)."}, "[6]": {"tested_on": "Jhd2", "experiment": "In vitro demethylase assay, Jhd2 purified from cells grown in increasing glucose", "assay_type": "biochemical, budding yeast (Saccharomyces cerevisiae)", "settings": "Jhd2 from cells grown in 0.05%, 0.5%", "description": "We also purified unphosphorylated Jhd2 from tpk2Δ mutant (Jhd2 tpk2Δ) and performed in vitro demethylase assay. […] We also treated WT Jhd2 with λ phosphatase to remove its phosphorylation and then used this dephosphorylated Jhd2 for in vitro demethylase assay. […] Furthermore, we purified Jhd2 from cells grown in increasing glucose concentrations (0.05%, 0.5%, 2%) and performed in vitro demethylase assay.\nThe reaction was quenched by adding 2×SDS-PAGE loading buffer and incubated at 95 °C for 10 min. Samples were spotted to PVDF membrane followed by dot blots with indicated antibodies."}}, "data": [{"molecule": "OC[C@H]1OC(O)[C@H](O)[C@@H](O)[C@@H]1O", "note": "(stereo partly drawn) [glucose]", "values": [{"measurement": "H3K4me3 level", "setting": "[1]", "value": "induced H3K4me3 in a dose-dependent manner"}, {"measurement": "H3K4me1 and H3K4me2 level", "setting": "[2]", "value": "had no effect on H3K4me1 and H3K4me2"}, {"measurement": "relative histone modification level (Figure S1c)", "setting": "[3]; WT, 0.5% glucose, relative to WT 0.05% = 1, replicate 1", "value": 1.436}, {"measurement": "relative histone modification level (Figure S1c)", "setting": "[3]; WT, 0.5% glucose, relative to WT 0.05% = 1, replicate 2", "value": 1.642}, {"measurement": "relative histone modification level (Figure S1c)", "setting": "[3]; WT, 0.5% glucose, relative to WT 0.05% = 1, replicate 3", "value": 1.498}, {"measurement": "relative histone modification level (Figure S1c)", "setting": "[3]; WT, 0.5% glucose, relative to WT 0.05% = 1, replicate 4", "value": 1.3798}, {"measurement": "relative histone modification level (Figure S1c)", "setting": "[3]; WT, 2% glucose, relative to WT 0.05% = 1, replicate 1", "value": 1.805}, {"measurement": "relative histone modification level (Figure S1c)", "setting": "[3]; WT, 2% glucose, relative to WT 0.05% = 1, replicate 2", "value": 2.101}, {"measurement": "relative histone modification level (Figure S1c)", "setting": "[3]; WT, 2% glucose, relative to WT 0.05% = 1, replicate 3", "value": 2.2062}, {"measurement": "relative histone modification level (Figure S1c)", "setting": "[3]; WT, 2% glucose, relative to WT 0.05% = 1, replicate 4", "value": 1.619}, {"measurement": "relative histone modification level (Figure S1c)", "setting": "[3]; WT, 4% glucose, relative to WT 0.05% = 1, replicate 1", "value": 1.732}, {"measurement": "relative histone modification level (Figure S1c)", "setting": "[3]; WT, 4% glucose, relative to WT 0.05% = 1, replicate 2", "value": 2.2477}, {"measurement": "relative histone modification level (Figure S1c)", "setting": "[3]; WT, 4% glucose, relative to WT 0.05% = 1, replicate 3", "value": 2.452}, {"measurement": "relative histone modification level (Figure S1c)", "setting": "[3]; WT, 4% glucose, relative to WT 0.05% = 1, replicate 4", "value": 2.7285}, {"measurement": "H3K4me3 level in ubp8Δ ubp10Δ mutant", "setting": "[3]; ubp8Δ ubp10Δ, glucose 0.5 hr, Western blot", "value": "H3K4me3 was still increased by glucose"}, {"measurement": "relative histone modification level (Figure S1c)", "setting": "[3]; ubp8Δubp10Δ, 0.05% glucose, relative to WT 0.05% = 1, replicate 1", "value": 1.962}, {"measurement": "relative histone modification level (Figure S1c)", "setting": "[3]; ubp8Δubp10Δ, 0.05% glucose, relative to WT 0.05% = 1, replicate 2", "value": 2.0252}, {"measurement": "relative histone modification level (Figure S1c)", "setting": "[3]; ubp8Δubp10Δ, 0.05% glucose, relative to WT 0.05% = 1, replicate 3", "value": 1.753}, {"measurement": "relative histone modification level (Figure S1c)", "setting": "[3]; ubp8Δubp10Δ, 0.05% glucose, relative to WT 0.05% = 1, replicate 4", "value": 1.8754}, {"measurement": "relative histone modification level (Figure S1c)", "setting": "[3]; ubp8Δubp10Δ, 0.5% glucose, relative to WT 0.05% = 1, replicate 1", "value": 2.076}, {"measurement": "relative histone modification level (Figure S1c)", "setting": "[3]; ubp8Δubp10Δ, 0.5% glucose, relative to WT 0.05% = 1, replicate 2", "value": 2.387}, {"measurement": "relative histone modification level (Figure S1c)", "setting": "[3]; ubp8Δubp10Δ, 0.5% glucose, relative to WT 0.05% = 1, replicate 3", "value": 2.436}, {"measurement": "relative histone modification level (Figure S1c)", "setting": "[3]; ubp8Δubp10Δ, 0.5% glucose, relative to WT 0.05% = 1, replicate 4", "value": 1.826}, {"measurement": "relative histone modification level (Figure S1c)", "setting": "[3]; ubp8Δubp10Δ, 2% glucose, relative to WT 0.05% = 1, replicate 1", "value": 2.343}, {"measurement": "relative histone modification level (Figure S1c)", "setting": "[3]; ubp8Δubp10Δ, 2% glucose, relative to WT 0.05% = 1, replicate 2", "value": 2.512}, {"measurement": "relative histone modification level (Figure S1c)", "setting": "[3]; ubp8Δubp10Δ, 2% glucose, relative to WT 0.05% = 1, replicate 3", "value": 2.749}, {"measurement": "relative histone modification level (Figure S1c)", "setting": "[3]; ubp8Δubp10Δ, 2% glucose, relative to WT 0.05% = 1, replicate 4", "value": 2.579}, {"measurement": "relative histone modification level (Figure S1c)", "setting": "[3]; ubp8Δubp10Δ, 4% glucose, relative to WT 0.05% = 1, replicate 1", "value": 3.366}, {"measurement": "relative histone modification level (Figure S1c)", "setting": "[3]; ubp8Δubp10Δ, 4% glucose, relative to WT 0.05% = 1, replicate 2", "value": 3.228}, {"measurement": "relative histone modification level (Figure S1c)", "setting": "[3]; ubp8Δubp10Δ, 4% glucose, relative to WT 0.05% = 1, replicate 3", "value": 2.75}, {"measurement": "relative histone modification level (Figure S1c)", "setting": "[3]; ubp8Δubp10Δ, 4% glucose, relative to WT 0.05% = 1, replicate 4", "value": 2.722}, {"measurement": "H3K4me3 level in chd1Δ mutant", "setting": "[4]; chd1Δ, different glucose concentrations, 0.5 hr, Western blot (rebuttal)", "value": "glucose-induced"}, {"measurement": "H3K4me3 level, WT versus tpk2Δ", "setting": "[4]; increasing glucose concentrations, Western blot", "value": "induced H3K4me3 in WT but not tpk2Δ mutant"}, {"measurement": "H3K14ac level", "setting": "[5]; WT cells, glucose 0.5 hr", "value": "induced H3K14ac"}, {"measurement": "H3K14ac level, WT versus Jhd2-S321A, S340A and tpk2Δ", "setting": "[5]; glucose", "value": "increased in response to glucose in WT but not in Jhd2-S321A, S340A and tpk2Δ mutants"}, {"measurement": "phosphorylation level and demethylase activity of Jhd2 purified from cells in 2% glucose versus 0.05% glucose", "setting": "[6]", "value": "higher phosphorylation level but lower demethylase activity"}]}]}
